Measured values published in US20120165319A1, “INHIBITORS OF INTERLEUKIN-1 BETA CONVERTING ENZYME” (VERTEX PHARMACEUTICALS INCORPORATED, priority 1995, published 2012).
pIC50: −log10 of the molar value. Where two headings read alike, the source gives them in different places.

Columns and labels:
[1] = system: IL-1β, human peripheral blood mononuclear cells (PBMC); assay: PBMC cell assay: IL-1β assay with human PBMC or enriched adherent mononuclear cells, LPS-stimulated; assay type: cell-based
How it was run: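 Mature IL-1β is measured by ELISA in supernatants after 16–18 hr at 37 °C, 5% CO2, with LPS (5 ng/ml final) and test compound (0.1% DMSO final). Cells are human PBMC (6×10^6 cells/ml) or plate-adherent mononuclear cells (2.5−3.0×10^5 per well), and the 5–6 compound concentrations span the ICE Ki.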

[2] = Pharmacokinetic studies in the mouse (i.v. clearance, plasma levels); assay type: in vivo; settings: mouse, 25 mg/kg; for clearance: CD-1, plasma, iv
Procedure: Pharmacokinetic Studies in the Mouse
Sample Preparation and Dosing
Compounds were dissolved in sterile TRIS solution (0.02M or 0.05M) at a concentration of 2.5 mg/ml. Where necessary to ensure a complete solution, the sample was first dissolved in a minimum of dimethylacetamide (maximum of 5% of total solution volume) then diluted with the TRIS solution.
The drug solution was administered to CD-1 mice (Charles River Laboratories—26-31 g) via the tail vein at a dose volume of 10 ml/kg giving a drug dose of 25 mg/kg.
Mice were dosed in groups of 5 for each timepoint (generally from 2 minutes to 2 hours) then at the appropriate time the animals were anaesthetised with halothane and the blood collected into individual heparinized tubes by jugular severance. The blood samples were cooled to 0° C. then the plasma separated and stored at −20° C. until assayed.
Drug concentration in the plasma samples were determined by HPLC analysis with UV or MS (ESP) detection. Reverse phase chromatography was employed using a variety of bonded phases from C1 to C18 with eluents composed of aqueous buffer/acetonitrile mixtures run under isocratic conditions.
Quantitation was by external standard methods with calibration curves constructed by spiking plasma with drug solutions to give concentrations in the range of 0.5 to 50 μg/ml.
Prior to analysis the plasma samples were deproteinated by the addition of acetonitrile, methanol, trichloroacetic acid or perchloric acid followed by centrifugation at 10,000 g for 10 minutes. Sample volumes of 20 μl to 50 μl were injected for analysis.
The drug was dissolved in sterile 0.02M Tris to give a 2.5 mg/ml solution which was administered to […] of 5 male CD-1 mice via the tail vein at a dose of 25 mg/kg. At each of the following timepoints: 2, 5, 10, 15, 20, 30, 45, 60, 90 and 120 minutes a group of animals was anaesthetised and the blood collected into heparinized tubes. After separation the plasma was stored at −20° C. until assayed.
Aliquots of plasma (150 μl) were treated with 5% perchloric acid (5 μl) then mixed by vortexing and allowed to stand for 90 minutes prior to centrifugation. The resulting supernatant was separated and 20 μl was injected for HPLC analysis.
Aliquots of plasma (100 μl) were diluted with acetonitrile (100 μl) then mixed by vortexing for 20 seconds before centrifugation for 10 minutes. The resulting supernatant was separated and 20 μl was injected for HPLC analysis.

[3] = system: IL-1β production, LPS-challenged mice; assay: In vivo acute assay for efficacy as anti-inflammatory agent: LPS-induced IL-1β production in mice; design: species or system mouse; settings: LPS challenged mice, 50 mg/kg; for Inhibition of IL-1β Production, compound administered 0 hr relative to LPS challenge / Inhibition of IL-1β Production, compound administered +1 hr relative to LPS challenge / Inhibition of IL-1β Production, compound administered −1 hr relative to LPS challenge / Inhibition of IL-1β Production, compound administered −2 hr relative to LPS challenge: PO, * = values obtained in subsequent assays (Table 4); for inhibition at 50 mg/kg: Mus musculus, po, compound PO, read-out: percent inhibition of IL-1β production
How it was run: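 Serum IL-1β was measured by ELISA 7 h after an IP dose of 20 mg/kg LPS in CD1 mice, n=6 per group. Compounds in olive oil/DMSO/ethanol 90:5:5 were injected IP 1 h post-LPS (some analogs were dosed at challenge), and separate groups received 50 mg/kg by oral gavage.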

[4] = Homo sapiens, PBMC, * = values obtained upon reassay

Row | clearance [2] [mL/min/kg] | Structure (SMILES) | pIC50 [1, 4] | further results
1 | 79 | O=C[C@H](CC(=O)O)NC(=O)[C@@H]1CCCN2C(=O)CC[C@H](NC(=O)CCc3ccccc3)C(=O)N12 [Compound 47a, [3S(1S,9S)]3-(6,10-Dioxo-octahydro-9-(3-phenylpropionylamino)-6H-pyridazino[1,2-a][1,2]diazepine-1-carboxamido)-4-oxobutanoic acid] | 5.59 | 
2 | > 100 | COc1cccc2nc(C(=O)[C@H](CC(=O)O)NC(=O)[C@@H]3CCCN4C(=O)CC[C@H](NC(=O)CCc5ccccc5)C(=O)N34)oc12 [Compound 135a] | 5.55 | 
3 | 93 | O=C(O)C[C@H](NC(=O)[C@@H]1CCCN2C(=O)CC[C@H](NC(=O)CCc3ccccc3)C(=O)N12)C(=O)COC(=O)c1c(Cl)cccc1Cl [Compound 136] | 6.06 | 
4 |  | O=C1C[C@H](NC(=O)[C@@H]2CCCN3C(=O)CC[C@H](NC(=O)c4cccc5ccccc45)C(=O)N23)C(OCc2ccccc2)O1 (stereo partly drawn) [Compound 213v, [1S,9S(2RS,3S)]N-(2-Benzyloxy-5-oxotetrahydrofuran-3-yl)-6,10-dioxo-9-(naphth-1-oylamino)-1,2,3,4,7,8,9,10-octahydro-6H-pyridazino[1,2-a][1,2]diazepine-1-carboxamide] |  | pIC50 ([1]; Homo sapiens, PBMC, Table 17): 5.96; clearance ([2]; Table 17): 41 mL/min/kg
5 | 70 | CC(=O)N[C@H]1CCC(=O)N2CCC[C@@H](C(=O)N[C@@H](CC(=O)O)C(=O)COC(=O)c3c(Cl)cccc3Cl)N2C1=O [Compound 217c, [3S(1S,9S)]3-(9-Acetylamino-6,10-dioxo-1,2,3,4,7,8,9,10-octahydro-6H-pyridazino-[1,2-a][1,2]diazepine-1-carboxamido)-5-(2,6-dichlorobenzoyloxy)-4-oxopentanoic acid] | 5.77 | 
6 | 89 | O=C(O)C[C@H](NC(=O)[C@@H]1CCCN2C(=O)CC[C@H](NC(=O)c3ccccc3)C(=O)N12)C(=O)c1nc2cc(Cl)cc(Cl)c2o1 [Compound 223e, [3S(1S,9S)]3-(9-Benzoylamino-6,10-dioxo-1,2,3,4,7,8,9,10-octahydro-6H-pyridazino-[1,2-a][1,2]diazepine-1-carboxamido)-4-(5,7-dichlorobenzoxazol-2-yl)-4-oxobutanoic acid] | 5.52 | 
7 | 109 | O=C(O)C[C@H](NC(=O)[C@@H]1CCCN2C(=O)CC[C@H](NC(=O)c3ccccc3)C(=O)N12)C(=O)CSCc1ccccc1Cl [Compound 226e, [3S(1S,9S)]3-(9-Benzoylamino-6,10-dioxo-1,2,3,4,7,8,9,10-octahydro-6H-pyridazino[1,2-a][1,2]-diazepine-1-carboxamido)-5-(2-chlorophenyl)methylthio-4-oxopentanoic acid] | 5.96 | 
8 |  | O=C(O)CC(NC(=O)[C@@H]1CCCN2C(=O)CC[C@H](NC(=O)c3ccccc3)C(=O)N12)C(=O)CF (stereo partly drawn) [Compound 230e, [3RS,(1S,9S)]3-(9-Benzoylamino-6,10-dioxo-1,2,3,4,7,8,9,10-octahydro-6H-pyridazino[1,2-a][1,2]-diazepine-1-carboxamido)-5-fluoro-4-oxopentanoic acid] |  | pIC50 ([1]; * = values obtained upon reassay): 6.49; Clearance Mouse, i.v. ([2]; i.v.): 67 mL/min/kg
9 | 22 | N#C[C@H](CC(=O)O)NC(=O)[C@@H]1CCCN2C(=O)CC[C@H](NC(=O)c3ccccc3)C(=O)N12 [Compound 232e, [3S(1S,9S)]9-(Benzoylamino)-3-[6,10-dioxo-1,2,3,4,7,8,9,10-octahydro-6H-pyridazino-[1,2-a][1,2]diazepine-1-carboxamido]-3-cyanopropanoic acid] | 5.35 | 
10 | 31 | O=C[C@H](CC(=O)O)NC(=O)[C@@H]1CCCN2CCC[C@H](NC(=O)c3ccccc3)C(=O)N12 [Compound 246] | 6.02 | 
11 | 77 | COC(=O)N[C@H]1CCC(=O)N2CCC[C@@H](C(=O)N[C@@H](CC(=O)O)C(=O)COC(=O)c3c(Cl)cccc3Cl)N2C1=O [Compound 284, [3S(1S,9S)]5-(2,6-Dichlorobenzoyloxy)-3-[6,10-dioxo-9-(methoxycarbonyl)amino-1,2,3,4,7,8,9,10-octahydro-6H-pyridazino[1,2-a][1,2]diazepine-1-carboxamido]-4-oxopentanoic acid] | 6.33 | 
12 | 130 | COC(=O)N[C@H]1CCC(=O)N2CCC[C@@H](C(=O)N[C@@H](CC(=O)O)C(=O)COC(=O)c3c(C)cccc3C)N2C1=O [Compound 285, [3S(1S,9S)]5-(2,6-Dimethylbenzoyloxy)-3-[6,10-dioxo-9-(methoxycarbonyl)amino-1,2,3,4,7,8,9,10-octahydro-6H-pyridazino[1,2-a][1,2]diazepine-1-carboxamido]-4-oxopentanoic acid] | 6.09 | 
13 | 41 | O=C[C@H](CC(=O)O)NC(=O)[C@@H]1CCCN2C(=O)CC[C@H](NC(=O)c3cccc4ccccc34)C(=O)N12 [Compound 408, [3S(1S,9S)]3-[6,10-Dioxo-9-(naphth-1-oylamino)-1,2,3,4,7,8,9,10-octahydro-6H-pyridazino[1,2-a][1,2]diazepine-1-carboxamido]-4-oxobutanoic acid] | 5.96 | 
14 | 32 | O=C[C@H](CC(=O)O)NC(=O)[C@@H]1CCCN2C(=O)CC[C@H](NC(=O)c3ccsc3)C(=O)N12 [Compound 410] | 5.70 | 
15 |  | CC(C)OC(=O)C[C@H](NC(=O)[C@@H]1CCCN2C(=O)CC[C@H](NC(=O)c3ccccc3)C(=O)N12)C(OC(C)C)OC(C)C [Compound 2100d] | < 4.70 | Inhibition of IL-1β Production, compound administered 0 hr relative to LPS challenge [3]: 52%; Inhibition of IL-1β Production, compound administered +1 hr relative to LPS challenge [3]: 26%; Inhibition of IL-1β Production, compound administered −1 hr relative to LPS challenge [3]: 35%; Inhibition of IL-1β Production, compound administered −2 hr relative to LPS challenge [3]: 42%
16 |  | CCOC1OC(=O)C[C@@H]1NC(=O)[C@@H]1CCCN2C(=O)CC[C@H](NC(=O)c3ccccc3)C(=O)N12 (stereo partly drawn) [Compound 2100e, [1S,9S(2RS,3S)]9-Benzoylamino-6,10-dioxo-1,2,3,4,7,8,9,10-octahydro-N-(2-ethoxy-5-oxo-tetrahydro-furan-3-yl)-6H-pyridazino[1,2-a][1,2]-diazepine-1-carboxamide] | 6.10 | Inhibition of IL-1β Production, compound administered 0 hr relative to LPS challenge [3]: 94%; Inhibition of IL-1β Production, compound administered +1 hr relative to LPS challenge [3]: 66%; Inhibition of IL-1β Production, compound administered −1 hr relative to LPS challenge [3]: 54%; Inhibition of IL-1β Production, compound administered −2 hr relative to LPS challenge [3]: 49%
17 |  | O=C1C[C@H](NC(=O)[C@@H]2CCCN3C(=O)CC[C@H](NC(=O)c4ccccc4)C(=O)N23)[C@H](OCc2ccccc2)O1 [Compound 2100o, [1S,9S(2R,3S)]9-Benzoylamino-N-(2-benzyloxy-5-oxotetrahydrofuran-3-yl)-6,10-dioxo-1,2,3,4,7,8,9,10-octahydro-6H-pyridazino[1,2-a][1,2]diazepine-1-carboxamide] |  | pIC50 ([1]; Homo sapiens, PBMC, Table 17): 5.94; inhibition at 50 mg/kg ([3]; 0 h, administered 0 h relative to time of LPS challenge): 68%; inhibition at 50 mg/kg ([3]; 1 h, administered +1 h relative to time of LPS challenge): 64%; inhibition at 50 mg/kg ([3]; 1 h, administered −1 h relative to time of LPS challenge): 44%; inhibition at 50 mg/kg ([3]; 2 h, administered −2 h relative to time of LPS challenge): 31%

Row | Structure (SMILES) | clearance [2] [mL/min/kg] | pIC50 [1, 4] | further results
18 | CS(=O)(=O)N[C@H]1CCC(=O)N2CCC[C@@H](C(=O)N[C@@H](CC(=O)O)C(=O)COC(=O)c3c(Cl)cccc3Cl)N2C1=O [Compound 138] | 116 | 6.05 | 
